Test results from US20260217712A1, “SOLID STATE FORMS OF MNK INHIBITORS” (4E Therapeutics, Inc., priority 2023, published 2026).
Converted amounts (≈) assume the structure as drawn. “Also recorded” adds a separate entry of the source.

Experiments:
Format in all cases: physicochemical
[1] = Thermodynamic solubility in simulated media and buffers; conditions: 25° C./24 h
Protocol: The thermodynamic solubility for Pattern 11 was determined in 3 simulated media and two buffers. […]

[2] = Competitive slurries of Pattern 3 and Pattern 11, XRPD
Outline: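 Turbula-mixed 1:1 Pattern 3/Pattern 11 solid (30 mg) slurried in dried solvent (20 vol) at fridge temperature, RT or 55 °C; XRPD after 7 days, mixtures re-checked after a further 10 days. Repeats at 5 °C and 55 °C used filtered THF/water (9:1) saturated with Structure (I); XRPD after 1 and 11 days.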

[3] = Static storage at 40° C./75% RH, XRPD and HPLC post storage; conditions: 7 days
[4] = XRPD under vacuum; conditions: for XRPD under vacuum: after 30 min under vacuum
From the text: (§1) XRPD diffractograms were collected on a PANalytical Empyrean diffractometer using Cu Kα radiation (45 kV, 40 mA, λ=1.544398 Å) in reflection geometry. The instrument was fitted with an Anton Paar CHC plus+ stage fitted with graphite/Kapton windows and equipped with air cooling coupled or a low vacuum pump system using an Edwards RV3 pump. A programmable divergence slit (in automatic mode), with a 10 mm fixed incident beam mask, Ni filter and 0.04 rad Soller slits were used on the incident beam. A PIXcel3D detector, placed on the diffracted beam, was fitted with a programmable anti-scatter slit (in automatic mode) and 0.04 rad Soller slits.
For XRPD under vacuum the samples were prepared and analyzed in an Anton Paar chromed sample holder. The sample temperature was kept constant throughout at 25° C. The measurement parameters are as per the standard screening data collection method (detailed above). An initial measurement was taken before the vacuum was initiated and then subsequently at 10 min intervals. Data collection was stopped after three consecutive scans showing no change.

[5] = Heating for 24 h in a vacuum tray dryer, XRPD and HPLC; conditions: 75° C., reduced pressure
Protocol: A polymorphism study of Structure (I) was performed at 75° C., 100° C., 175° C., and 250° C. About 500 mg of Structure (I) Pattern 3 was heated at 75° C. for 24 h in a vacuum tray dryer (VTD) under reduced pressure. Obtained material after heating at 75° C. was analyzed for purity by HPLC and XPRD analysis. […] Additionally, about 500 mg of Structure (I) was heated at 75° C. for 24 h in a VTD under reduced pressure. After 24 h, material was cooled to 25-30° C. under inert atmosphere and analyzed for purity by HPLC and XRPD.
About 500 mg of Structure (I) was heated at 100° C. for 24 h in a VTD under reduced pressure. Obtained material after heating at 100° C. was analyzed for purity by HPLC and XPRD. […] Additionally, about 500 mg of Structure (I) was heated at 100° C. for 24 h in a VTD under reduced pressure. After 24 h material was cooled to 25-30° C. under inert atmosphere. Obtained material was analyzed for purity by HPLC and XPRD.
Obtained material after heating at 175° C. was analyzed for purity by HPLC and XPRD. […] After 24 h, material was cooled to 25-30° C. under inert atmosphere. Obtained material was analyzed for purity by HPLC and XPRD.
About 500 mg of Structure (I) was heated at 250° C. for 24 h in a VTD. Obtained material after heating at 250° C. was analyzed for purity by HPLC and XPRD.

[6] = LogD
[7] = Static storage at 25° C./97% RH, XRPD and HPLC post storage; conditions: 8 days, listed as Lot B Sample 1
[8] = Single crystal X-ray diffraction
Protocol: Crystals of Structure (I) Pattern 3 were obtained by evaporation of a THF:water 9:1 solution. A crystal of Structure (I) Pattern 3 of sufficient size and quality for analysis by single crystal X-ray diffraction was isolated from the sample with approximate dimensions 0.15×0.05×0.02 mm.
The single crystal X-ray structure of Structure (I) Pattern 3 was determined at 293(2) K and a summary of the structural data can be found in Table 41. The crystal structure of Structure (I) Pattern 3 was solved in the triclinic space group P-1 with the final R1 [I>2σ(I)]=4.36%. The structure was identified as depicted in FIG. 89 and FIG. 90 and the asymmetric unit found to contain two molecules of Structure (I).

[9] = Variable temperature XRPD (VT-XRPD)
From the text: as §1
For variable temperature (VT-XRPD) experiments the samples were prepared and analyzed in an Anton Paar chromed sample holder. The sample chamber was under ambient atmosphere and a heating/cooling rate of 10° C./min was used with a 2 min isothermal hold before the measurement started. The measurement parameters are as per the standard screening data collection method (detailed above). Measurements were taken at the following temperatures: 25, 80, 170, 250, and 25° C.

Cc1cc(Nc2cc(N)ncn2)c(=O)n2c1C(=O)NC21CCC2(CC2)CC1 [Pattern 3]
Solubility FaSSGF ([1]; FaSSGF, listed as Structure (I) Pattern 3): 26 µg/mL (≈ 71 µM) | Solubility FaSSIF ([1]; FaSSIF, listed as Lot B Sample 2): FaSSIF-0.0016 mg/mL | Solubility FeSSIF ([1]; FeSSIF, listed as Lot B Sample 2): FeSSIF-0.0060 mg/mL | Solubility pH 2.0 ([1]; pH 2.0 buffer, listed as Lot B Sample 2): pH 2.0-0.012 mg/mL | Solubility pH 7.4 ([1]; pH 7.4 buffer): pH 7.4-0.001 mg/mL | form conversion in competitive slurries (in words) [2]: converted to Pattern 11 | XRPD post storage at 40° C./75% RH ([3]; listed as 9-5): remained unchanged by XRPD; also recorded: Free Form Pattern 3 | XRPD post storage at 40° C./75% RH ([3]; listed as Lot B Sample 1): Unchanged by XRPD | XRPD under vacuum ([4]; listed as Lot B): converted to Pattern 10 | XRPD under vacuum ([4]; listed as Lot B Sample 1): Conversion to Pattern 10 after 30 min | XRPD after vacuum released ([4]; vacuum released for 30 min, ambient conditions, listed as Lot B Sample 1): Conversion back to Pattern 3 after | HPLC purity change after heating at 75° C. [5]: no change | XRPD form after heating at 75° C. [5]: remained as Pattern 3 | logD [6]: 3.1 | HPLC purity after storage at 25° C./97% RH (8 days) [7]: 98.5% | XRPD after storage at 25° C./97% RH (8 days) [7]: Unchanged by XRPD | F(000) [8]: 796 | Density (calculated) ([8]; 293(2) K): 1.339 Mg/m^3 | Unit cell dimensions a ([8]; 293(2) K): a = 10.1823(3) Å Å | Unit cell dimensions b ([8]; 293(2) K): b = 12.1136(4) Å Å | Unit cell dimensions c ([8]; 293(2) K): c = 16.6675(3) Å Å | Unit cell dimensions α ([8]; 293(2) K): α = 72.512(2)° | Unit cell dimensions β ([8]; 293(2) K): β = 79.465(2)° | Unit cell dimensions γ ([8]; 293(2) K): γ = 72.661(3)° | Z ([8]; 293(2) K): 4 | Crystal system ([8]; 293(2) K, wavelength 1.54184 Å): Triclinic | Crystal habit ([8]; crystal from THF:Water 9:1, evaporative): Colorless lath | Volume ([8]; unit cell, 293(2) K): 1861.87(10) Å^3 | Absorption coefficient ([8]; wavelength 1.54184 Å): 0.756 mm^−1 | VT-XRPD form at 25-80° C. ([9]; 25-80° C.): 25-80° C.: Pattern 3 | VT-XRPD form at 175° C. [9]: Pattern 10 was again observed | VT-XRPD form at 175° C. ([9]; listed as Lot B Sample 1): 175° C.: Pattern 10 | VT-XRPD form at 250° C. ([9]; 250° C., listed as Lot B Sample 1): 250° C.: Patterns 10 and 11 | VT-XRPD form on cooling to 25° C. ([9]; cooling to 25° C.): Cooling to 25° C.: Patterns 11 and 3
